{"source": "patent US4618612A", "about": "(Medosan Industrie Biochimiche Riunite S.p.A., priority 1983, dated 1986)", "key": {"[1]": {"test_system": "rat platelet-rich plasma (ADP-induced platelet aggregation)", "test": "Anti-platelet aggregation activity in vitro (Born's method), rat platelet-rich plasma, ADP-induced", "assay_type": "cell-based", "experimental": "Preparations (A), (B), (C), (D), (E) and (F) were administered \"in vivo\" orally and/or parenterally in 0.5% carboxymethylcellulose suspensions in physiological saline at neutral pH. When tested \"in vitro\", they were finely dispersed in neutral pH physiological saline.\nThis was studied \"in vitro\" following Born's method (Born G. W. R., Nature, 194, 937 (1962)) and inducing platelet aggregation with ADP.\nPlatelet-rich plasma was obtained by centrifugation for 10 minutes at 2,000 rpm of 9 parts rat blood to 1 part 3.13% sodium citrate solution. In performing the aggregation test, 0.2 ml of platelet rich plasm was mixed with a 0.9% NaCl solution to which the test substance was added to a final volume of 0.6 ml; the resulting mixture was incubated at 27° C. for 3 minutes. After inducement with ADP, aggregation was measured continuously with an Elvi 840 Aggregometer (Elvi Logos-Milan) to follow its course. The anti-aggregant effects were determined from the difference in the light transmission of the sample with respect to an ADP control.\nTable I reports the platelet aggregation inhibition using different doses of the test compounds at a constant ADP concentration."}, "carragenin-induced edema": {"test_system": "carragenin-induced edema", "test": "Carragenin-induced edema test (Winter)", "assay_type": "in vivo, rat", "experimental": "This effect was measured with an experimental model reproducing acute inflammation in rats: the carragenin-induced edema test according to C."}, "gastric mucosa": {"test_system": "gastric mucosa", "test": "Gastric tolerance (ulcerogenic activity)", "assay_type": "in vivo, male Wistar rats", "settings": "4 days; for Mean Severity: scale 0-5; for Gastric Damage index: vehicle 8", "experimental": "This was studied by conducting tests of ulcerogenic activity in male Wistar rats, weighing 180 g on the average, in groups of 10 animals each. Three doses of each substance were given, and one group of animals was treated with vehicle only in a volume of 10 ml/kg bodyweight. Each dose was given orally for four consecutive days; on the fifth day, the rats were killed and autopsied. The ulcerogenic effect was assessed according to the following scale:\n(1) each hemorrhage point ≥1 mm was evaluated as 1 lesion\n(2) hemorrhage points smaller than 1 mm were counted as follows:\n(b) from 1 to 19:2 lesions\n(c) from 1 to 29:3 lesions\n(2) gastric mucosa irritation: 1\n(3) hemorrahge points <1 mm: 2\n(4) hemorrhage points between 1 and 3 mm: 3\n(5) hemorrhage points >3 mm: 4\nThis scale was used to calculate the following gastric damage index: [formula]"}, "in vivo [2]": {"test": "in vivo", "settings": "mouse, mice"}, "in vivo [3]": {"test": "in vivo", "settings": "rat, rats"}, "Solubility": {"test": "Solubility", "assay_type": "physicochemical", "settings": "common organic solvents"}}}
{"smiles": "Cc1cc(CC(=O)OCCn2cnc3c2c(=O)n(C)c(=O)n3C)n(C)c1C(=O)c1ccc(Cl)cc1", "note": "[(B), 1,4-Dimethyl-5-p-chlorobenzoylpyrrol-2-acetate of 7-(2-oxyethyl)theophylline]", "values": [{"measurement": "% Inhibition", "setting": "[1]; ADP 2 μmol/l, dose 1 V/ml (Table II)", "result": 31, "unit": "%"}, {"measurement": "% Inhibition", "setting": "[1]; ADP 5 μmol/l, dose 1 V/ml (Table II)", "result": 25, "unit": "%"}, {"measurement": "% Inhibition", "setting": "[1]; ADP 7.08 μmol/l, dose 1 /ml (Table I)", "result": 20, "unit": "%"}, {"measurement": "% Inhibition", "setting": "[1]; ADP 7.08 μmol/l, dose 2,5 /ml (Table I)", "result": 70, "unit": "%"}, {"measurement": "% Inhibition", "setting": "[1]; ADP 7.08 μmol/l, dose 5 /ml (Table I)", "result": 90, "unit": "%"}, {"measurement": "% Edema Inhibition", "setting": "carragenin-induced edema; I.P., 5 mg/kg, 3 h", "result": "65,2%"}, {"measurement": "% Edema Inhibition", "setting": "carragenin-induced edema; I.P., 5 mg/kg, 6 h", "result": "60,5%"}, {"measurement": "% Edema Inhibition", "setting": "carragenin-induced edema; I.P., 5 mg/kg, 24 h", "result": "10,5%"}, {"measurement": "% Edema Inhibition", "setting": "carragenin-induced edema; I.P., 10 mg/kg, 3 h", "result": "70,6%"}, {"measurement": "% Edema Inhibition", "setting": "carragenin-induced edema; I.P., 10 mg/kg, 6 h", "result": "71,3%"}, {"measurement": "% Edema Inhibition", "setting": "carragenin-induced edema; I.P., 10 mg/kg, 24 h", "result": "15,0%"}, {"measurement": "% Edema Inhibition", "setting": "carragenin-induced edema; I.P., 2,5 mg/kg, 3 h", "result": "52,0%"}, {"measurement": "% Edema Inhibition", "setting": "carragenin-induced edema; I.P., 2,5 mg/kg, 6 h", "result": "50,0%"}, {"measurement": "% Edema Inhibition", "setting": "carragenin-induced edema; I.P., 2,5 mg/kg, 24 h", "result": "5,1%"}, {"measurement": "% Edema Inhibition", "setting": "carragenin-induced edema; OS, 5 mg/kg, 3 h", "result": "66,0%"}, {"measurement": "% Edema Inhibition", "setting": "carragenin-induced edema; OS, 5 mg/kg, 6 h", "result": "60,0%"}, {"measurement": "% Edema Inhibition", "setting": "carragenin-induced edema; OS, 5 mg/kg, 24 h", "result": "12,0%"}, {"measurement": "% Edema Inhibition", "setting": "carragenin-induced edema; OS, 10 mg/kg, 3 h", "result": "73,0%"}, {"measurement": "% Edema Inhibition", "setting": "carragenin-induced edema; OS, 10 mg/kg, 6 h", "result": "70,3%"}, {"measurement": "% Edema Inhibition", "setting": "carragenin-induced edema; OS, 10 mg/kg, 24 h", "result": "20,0%"}, {"measurement": "% Edema Inhibition", "setting": "carragenin-induced edema; OS, 2,5 mg/kg, 3 h", "result": "56,4%"}, {"measurement": "% Edema Inhibition", "setting": "carragenin-induced edema; OS, 2,5 mg/kg, 6 h", "result": "53,0%"}, {"measurement": "% Edema Inhibition", "setting": "carragenin-induced edema; OS, 2,5 mg/kg, 24 h", "result": "10,0%"}, {"measurement": "% incidence 10", "setting": "gastric mucosa; 5 mg/kg oral", "result": 8, "unit": "%/10"}, {"measurement": "Gastric Damage index, second figure (after +; difference from vehicle)", "setting": "gastric mucosa; 5 mg/kg oral", "result": 5}, {"measurement": "Mean No. lesions", "setting": "gastric mucosa; 5 mg/kg oral", "result": "2,5"}, {"measurement": "Mean Severity", "setting": "gastric mucosa; 5 mg/kg oral", "result": "2,5"}, {"measurement": "Gastric Damage index", "setting": "gastric mucosa; 5 mg/kg oral", "result": 13}, {"measurement": "% incidence 10", "setting": "gastric mucosa; 10 mg/kg oral", "result": 9, "unit": "%/10"}, {"measurement": "Gastric Damage index, second figure (after +; difference from vehicle)", "setting": "gastric mucosa; 10 mg/kg oral", "result": 8}, {"measurement": "Mean No. lesions", "setting": "gastric mucosa; 10 mg/kg oral", "result": 3}, {"measurement": "Mean Severity", "setting": "gastric mucosa; 10 mg/kg oral", "result": 4}, {"measurement": "Gastric Damage index", "setting": "gastric mucosa; 10 mg/kg oral", "result": 16}, {"measurement": "% incidence 10", "setting": "gastric mucosa; 2,5 mg/kg oral", "result": 7, "unit": "%/10"}, {"measurement": "Gastric Damage index, second figure (after +; difference from vehicle)", "setting": "gastric mucosa; 2,5 mg/kg oral", "result": 2}, {"measurement": "Mean No. lesions", "setting": "gastric mucosa; 2,5 mg/kg oral", "result": 1}, {"measurement": "Mean Severity", "setting": "gastric mucosa; 2,5 mg/kg oral", "result": 2}, {"measurement": "Gastric Damage index", "setting": "gastric mucosa; 2,5 mg/kg oral", "result": 10}, {"measurement": "LD50", "setting": "in vivo [2]; ip, I.P.", "result": 140, "unit": "mg/kg"}, {"measurement": "LD50", "setting": "in vivo [2]; po, OS", "result": 160, "unit": "mg/kg"}, {"measurement": "LD50", "setting": "in vivo [3]; ip, I.P.", "result": 100, "unit": "mg/kg"}, {"measurement": "LD50", "setting": "in vivo [3]; po, OS", "result": 150, "unit": "mg/kg"}, {"measurement": "Solubility", "setting": "Solubility", "result": "Soluble in common organic solvents"}]}
